Assay results taken from patent US7871790B2 (priority 2004, dated 2011).
Residues, ends and D or L forms follow the SMILES beside them. *: point of attachment. Cbz = O=C(OCc1ccccc1)*; CH2F = FC*

Experiments:
ICE (caspase-1) = biological target: T1, ICE (caspase-1) (Mus musculus, UniProt P29452)
T1 sequence (P29452 119-296 limits assumed): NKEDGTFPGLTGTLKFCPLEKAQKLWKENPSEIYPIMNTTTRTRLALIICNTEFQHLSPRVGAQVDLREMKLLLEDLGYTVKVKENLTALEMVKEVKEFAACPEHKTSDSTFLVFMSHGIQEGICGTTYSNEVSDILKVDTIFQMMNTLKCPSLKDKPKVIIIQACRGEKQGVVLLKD
T1 sequence (P29452 315-402 limits assumed): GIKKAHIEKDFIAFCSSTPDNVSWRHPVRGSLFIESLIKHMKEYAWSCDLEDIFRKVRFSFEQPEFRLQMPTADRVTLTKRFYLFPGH

[1] = tested on: RAW 264.7 murine macrophage cell line; format: cell-based; conditions: 24 h

Compound	Effect on cell viability (ICE (caspase-1))	Blocking of IL-1β production induced by anthrax LT (ICE (caspase-1); 24 hours)	Blocking of IL-18 production induced by anthrax LT (ICE (caspase-1); 24 hours)	Dose needed for induction of IL-1β comparable to that resulting from anthrax LT treatment [1]	Induction of IL-18 [1]
COC(=O)CC[C@H](NC(=O)[C@H](Cc1c[nH]c2ccccc12)NC(=O)OCc1ccccc1)C(=O)N[C@@H](Cc1cnc[nH]1)C(=O)N[C@@H](CC(=O)OC)C(=O)CF [Z-WEHD-FMK] (Cbz-WE(OMe)HD(OMe)-CH2F)	no observable effect	~70%	~70%		
lipopolysaccharide [LPS]				≥ 100 EU/ml	not induced
